Results: US20100204205A1 (priority 2007, published 2010)
“Also recorded” adds a separate entry of the source.

What was measured:
[1] = target: T1, 5HT3 serotonin receptors (Homo sapiens, UniProt P46098); conditions: cited from earlier work
T1 sequence (P46098 24-478): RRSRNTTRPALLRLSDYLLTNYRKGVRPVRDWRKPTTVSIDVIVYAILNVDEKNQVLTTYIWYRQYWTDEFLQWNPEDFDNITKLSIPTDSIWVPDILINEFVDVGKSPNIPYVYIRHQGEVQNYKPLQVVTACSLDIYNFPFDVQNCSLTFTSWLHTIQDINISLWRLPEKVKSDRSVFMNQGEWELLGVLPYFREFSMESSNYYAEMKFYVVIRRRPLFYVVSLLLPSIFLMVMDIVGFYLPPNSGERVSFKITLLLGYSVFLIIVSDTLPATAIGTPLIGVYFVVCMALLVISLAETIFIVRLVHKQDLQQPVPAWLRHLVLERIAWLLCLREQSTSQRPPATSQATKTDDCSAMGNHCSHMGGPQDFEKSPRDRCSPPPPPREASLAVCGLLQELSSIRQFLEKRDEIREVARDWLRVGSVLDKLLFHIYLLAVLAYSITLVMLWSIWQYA

[2] = target: 5HT1B receptors (Homo sapiens, UniProt P28222); conditions: cited from earlier work
Chain of 5HT1B receptors (P28222 whole entry): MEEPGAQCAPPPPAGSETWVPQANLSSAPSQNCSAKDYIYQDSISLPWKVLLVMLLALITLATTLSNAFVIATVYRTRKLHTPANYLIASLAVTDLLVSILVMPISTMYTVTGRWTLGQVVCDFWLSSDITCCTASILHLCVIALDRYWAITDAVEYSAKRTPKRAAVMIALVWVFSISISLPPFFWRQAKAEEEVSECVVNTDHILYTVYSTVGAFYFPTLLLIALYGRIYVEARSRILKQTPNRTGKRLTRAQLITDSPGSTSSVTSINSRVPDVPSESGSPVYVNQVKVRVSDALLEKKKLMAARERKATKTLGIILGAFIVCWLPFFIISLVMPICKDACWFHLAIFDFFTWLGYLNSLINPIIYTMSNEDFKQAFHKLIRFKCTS

[3] = Example 1: tolerability study of mirtazapine and betahistine; assay type: in vivo, normal, health subjects; conditions: 6 weeks of therapy, healthy subjects
Description: The subjects receive 2 capsules per day, one in the morning and one at bedtime. […] In a different dosage range, the subjects receive 3 capsules per day, one in the morning, one at noon and one at bedtime. […] In a different dosage range, the subjects receive 2 capsules per day, one in the morning and one at bedtime. […] All medications are administered in an over-encapsulated format that ensures blinding of study participants, staff and investigators. All subjects are scheduled to receive a total of 6 weeks of therapy, and are required to return to the clinics after 1, 2, 4 and 6 weeks of therapy. Patients are required to complete paper self-assessments, electronic diary assessments, computer based cognitive testing, as well as vital signs and weight assessments at the clinic visits.

[4] = target: histamine H1 receptors (Homo sapiens, UniProt P35367); conditions: cited from earlier work
Chain of histamine H1 receptors (P35367 whole entry): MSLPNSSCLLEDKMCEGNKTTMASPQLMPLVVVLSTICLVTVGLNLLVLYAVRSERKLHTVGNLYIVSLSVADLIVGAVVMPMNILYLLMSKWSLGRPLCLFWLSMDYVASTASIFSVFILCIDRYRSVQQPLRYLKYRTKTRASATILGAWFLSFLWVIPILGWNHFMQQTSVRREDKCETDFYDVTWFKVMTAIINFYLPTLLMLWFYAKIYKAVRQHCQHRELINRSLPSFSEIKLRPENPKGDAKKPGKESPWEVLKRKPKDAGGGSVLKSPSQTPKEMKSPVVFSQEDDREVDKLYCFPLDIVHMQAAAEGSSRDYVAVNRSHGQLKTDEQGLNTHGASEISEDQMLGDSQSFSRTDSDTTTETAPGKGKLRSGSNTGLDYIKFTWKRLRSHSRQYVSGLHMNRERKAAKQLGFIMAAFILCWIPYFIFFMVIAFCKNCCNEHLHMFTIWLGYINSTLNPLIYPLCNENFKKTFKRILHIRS

[5] = target: norepinephrine reuptake (Homo sapiens, UniProt P23975); conditions: cited from earlier work
Chain of norepinephrine reuptake (P23975 whole entry): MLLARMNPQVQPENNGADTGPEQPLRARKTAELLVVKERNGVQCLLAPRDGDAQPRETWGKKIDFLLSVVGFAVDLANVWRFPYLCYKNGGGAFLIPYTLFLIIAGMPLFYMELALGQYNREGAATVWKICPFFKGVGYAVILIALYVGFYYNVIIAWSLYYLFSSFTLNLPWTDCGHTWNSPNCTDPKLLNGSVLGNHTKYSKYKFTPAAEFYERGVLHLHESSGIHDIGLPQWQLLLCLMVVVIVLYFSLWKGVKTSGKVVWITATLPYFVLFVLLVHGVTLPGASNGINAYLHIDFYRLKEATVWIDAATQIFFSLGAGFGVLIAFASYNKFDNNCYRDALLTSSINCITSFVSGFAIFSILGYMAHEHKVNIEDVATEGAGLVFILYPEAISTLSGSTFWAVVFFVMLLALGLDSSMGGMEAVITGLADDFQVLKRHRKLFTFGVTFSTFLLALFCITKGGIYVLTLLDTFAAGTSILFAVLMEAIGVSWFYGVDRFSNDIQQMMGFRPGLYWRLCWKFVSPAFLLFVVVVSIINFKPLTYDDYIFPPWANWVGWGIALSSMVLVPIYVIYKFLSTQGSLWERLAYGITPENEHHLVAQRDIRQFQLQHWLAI

[6] = target: T2, 5HT1A receptors (Homo sapiens, UniProt P08908); conditions: cited from earlier work
T2 sequence (P08908 1-422): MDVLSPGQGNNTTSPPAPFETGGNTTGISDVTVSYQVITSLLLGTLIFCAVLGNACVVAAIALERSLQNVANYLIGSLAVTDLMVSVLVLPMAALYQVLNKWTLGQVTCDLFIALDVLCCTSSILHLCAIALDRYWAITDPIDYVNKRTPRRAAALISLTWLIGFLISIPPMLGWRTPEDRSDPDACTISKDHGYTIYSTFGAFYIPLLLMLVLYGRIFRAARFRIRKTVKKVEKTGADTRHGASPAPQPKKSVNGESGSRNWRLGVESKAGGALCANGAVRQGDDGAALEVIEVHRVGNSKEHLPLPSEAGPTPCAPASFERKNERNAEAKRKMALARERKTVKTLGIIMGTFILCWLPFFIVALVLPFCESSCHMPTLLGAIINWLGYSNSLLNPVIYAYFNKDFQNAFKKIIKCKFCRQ

[7] = system: alpha-1 adrenergic receptors; conditions: cited from earlier work
[8] = system: 5HT2 receptors; conditions: cited from earlier work
[9] = target: 5HT2A serotonin receptors (Homo sapiens, UniProt P28223); conditions: cited from earlier work
Chain of 5HT2A serotonin receptors (P28223 whole entry): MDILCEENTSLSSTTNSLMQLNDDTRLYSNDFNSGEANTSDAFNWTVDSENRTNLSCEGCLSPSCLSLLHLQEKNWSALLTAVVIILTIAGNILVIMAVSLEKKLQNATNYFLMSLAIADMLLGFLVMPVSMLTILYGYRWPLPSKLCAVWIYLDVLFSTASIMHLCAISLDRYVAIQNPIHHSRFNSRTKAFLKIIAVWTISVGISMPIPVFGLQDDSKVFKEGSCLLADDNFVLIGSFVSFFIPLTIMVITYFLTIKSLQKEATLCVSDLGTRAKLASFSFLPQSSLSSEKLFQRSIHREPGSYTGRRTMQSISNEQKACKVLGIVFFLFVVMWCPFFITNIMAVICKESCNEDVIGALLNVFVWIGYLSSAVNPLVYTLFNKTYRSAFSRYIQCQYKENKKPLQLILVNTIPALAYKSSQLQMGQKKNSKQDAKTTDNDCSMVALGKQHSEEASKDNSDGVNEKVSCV

[10] = target: reuptake of dopamine (Homo sapiens, UniProt Q01959); conditions: cited from earlier work
Chain of reuptake of dopamine (Q01959 whole entry): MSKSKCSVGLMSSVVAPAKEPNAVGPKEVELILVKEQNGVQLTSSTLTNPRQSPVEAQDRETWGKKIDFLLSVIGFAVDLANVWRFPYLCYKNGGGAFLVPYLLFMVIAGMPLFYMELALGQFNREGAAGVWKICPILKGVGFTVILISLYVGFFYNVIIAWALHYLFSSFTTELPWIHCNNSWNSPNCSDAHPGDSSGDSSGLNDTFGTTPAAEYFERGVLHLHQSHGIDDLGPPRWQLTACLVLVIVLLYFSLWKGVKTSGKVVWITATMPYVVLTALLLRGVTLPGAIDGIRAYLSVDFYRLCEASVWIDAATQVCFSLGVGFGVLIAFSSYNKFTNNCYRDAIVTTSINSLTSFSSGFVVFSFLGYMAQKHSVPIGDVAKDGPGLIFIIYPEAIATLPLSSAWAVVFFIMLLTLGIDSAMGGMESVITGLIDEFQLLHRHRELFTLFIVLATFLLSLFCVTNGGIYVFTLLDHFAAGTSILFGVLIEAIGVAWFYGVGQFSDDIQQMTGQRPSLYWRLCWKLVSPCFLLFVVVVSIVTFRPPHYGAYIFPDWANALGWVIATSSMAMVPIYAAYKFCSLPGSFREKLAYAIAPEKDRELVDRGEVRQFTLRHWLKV

[11] = system: muscarinic cholinergic receptors; conditions: cited from earlier work
[12] = system: alpha-2 receptors; conditions: cited from earlier work
[13] = target: reuptake of 5HT (Homo sapiens, UniProt P31645); conditions: cited from earlier work
Chain of reuptake of 5HT (P31645 whole entry): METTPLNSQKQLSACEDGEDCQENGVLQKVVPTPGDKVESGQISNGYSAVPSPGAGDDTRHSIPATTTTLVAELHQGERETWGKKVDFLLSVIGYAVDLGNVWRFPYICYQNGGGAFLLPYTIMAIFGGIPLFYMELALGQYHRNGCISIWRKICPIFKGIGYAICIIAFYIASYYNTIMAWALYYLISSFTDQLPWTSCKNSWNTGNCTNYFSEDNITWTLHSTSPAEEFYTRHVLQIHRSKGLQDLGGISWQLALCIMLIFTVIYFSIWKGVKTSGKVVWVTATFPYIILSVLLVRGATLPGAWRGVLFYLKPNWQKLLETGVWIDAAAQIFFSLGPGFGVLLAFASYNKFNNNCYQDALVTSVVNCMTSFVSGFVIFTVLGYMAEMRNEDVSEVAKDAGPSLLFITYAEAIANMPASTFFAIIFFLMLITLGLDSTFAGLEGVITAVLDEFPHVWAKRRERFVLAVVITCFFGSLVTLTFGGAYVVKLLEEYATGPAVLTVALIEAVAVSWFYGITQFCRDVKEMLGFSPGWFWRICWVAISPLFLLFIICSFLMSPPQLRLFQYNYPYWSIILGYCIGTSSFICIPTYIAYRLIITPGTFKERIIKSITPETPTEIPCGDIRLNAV

[14] = target: T3, 5HT2C serotonin receptors (Homo sapiens, UniProt P28335); conditions: cited from earlier work
T3 sequence (P28335 33-458): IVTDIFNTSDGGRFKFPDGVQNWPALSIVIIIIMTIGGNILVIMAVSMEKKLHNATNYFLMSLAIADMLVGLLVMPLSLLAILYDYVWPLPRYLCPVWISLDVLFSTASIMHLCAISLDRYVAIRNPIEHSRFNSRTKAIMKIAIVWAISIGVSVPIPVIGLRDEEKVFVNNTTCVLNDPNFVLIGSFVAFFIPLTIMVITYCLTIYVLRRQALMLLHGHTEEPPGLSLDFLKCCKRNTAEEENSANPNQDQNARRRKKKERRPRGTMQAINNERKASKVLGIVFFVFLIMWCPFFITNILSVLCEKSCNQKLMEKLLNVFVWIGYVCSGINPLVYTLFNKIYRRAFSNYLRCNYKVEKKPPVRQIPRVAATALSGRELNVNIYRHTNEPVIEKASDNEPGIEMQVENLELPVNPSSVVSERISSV

[15] = controlled studies; cited from earlier work
[16] = administered IP or IV; cited from earlier work
[17] = in vivo; cited from earlier work

Row | Structure (SMILES) | antagonist activity at 5HT3 serotonin receptors [1] | affinity for the 5HT1B receptors [2] | side effects [3] | antagonist activity at histamine H1 receptors [4] | inhibition of norepinephrine reuptake [5] | affinity for the 5HT1A receptors [6] | antagonist activity at alpha-1 adrenergic receptors [7] | antagonist activity at 5HT2 receptors [8] | antagonist activity at 5HT2A serotonin receptors [9] | effect on the reuptake of dopamine [10] | antagonist activity at muscarinic cholinergic receptors [11] | antagonist activity at central alpha-2 receptors [12] | effect on the reuptake of 5HT [13] | antagonist activity at 5HT2C serotonin receptors [14] | appetite increase reported, share of patients [15] [%] | weight gain of greater than or equal to 7% of body weight, share of patients [15] [%] | food intake [16] | satiety signaling [16] | blood-brain barrier passage [17]
1 | CN1CCN2c3ncccc3Cc3ccccc3C2C1 (centres unmarked) [mirtazapine, 1,2,3,4,10,14b-hexahydro-2-methylpyrazino[2,1-a]pyrido[2,3-c]benzazepine] | potent antagonist | lacks significant affinity | does cause weight gain, sedation, and cognitive deficits | potent antagonist | very weak inhibitor | lacks significant affinity | moderate; also recorded: weak antagonist | potent antagonist | potent antagonist | no effect | moderate antagonist; also recorded: weak antagonist | potent antagonist | no effect | potent antagonist |  |  |  |  | 
2 | CN(C)CCC=C1c2ccccc2CCc2ccccc21 [amitriptyline] |  |  |  |  |  |  |  |  |  |  |  |  |  |  | 6 | 5.9 |  |  | 
3 | CNCCc1ccccn1 [betahistine, 2-[2-(methylamino)ethyl]pyridine] |  |  | causes insomnia, nausea/vomiting, and weight loss |  |  |  |  |  |  |  |  |  |  |  |  |  | marginally inhibit food intake | increase the satiety signaling | crosses the blood-brain barrier
